Laboratory results: patent publication US20240408064A1, “RAS INHIBITORS, COMPOSITIONS AND METHODS OF USE THEREOF” (GENETOLEAD INC., priority 2021, published 2024)
Values joined by “and” are separate entries in the source; they are usually repeats but may differ in a detail not shown here. Equal entries are not always repeated. “Also recorded” adds a separate entry of the source.

What was measured:
HRas^G12V [1] = target: T1, HRas^G12V (Homo sapiens (Human), UniProt P01112, G12V); assay: Overall binding/activity in the various assays (NMR consensus binding)
How it was run: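 Fragments (240 µM each, pooled) screened against 50 µM HRas^G12V in 25 mM sodium phosphate pH 7.4, 150 mM NaCl, 5 mM MgCl2, 1 mM TCEP-d16 by 1H-decoupled 1D 19F NMR. Hits confirmed by ligand- and protein-observed 1D 1H, STD and T2-CPMG (aggregation check); consensus binding ranked, with 15N HSQC for sites and Kd.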

[2] = Solubility and free-state aggregation in the NMR screen; type: physicochemical; details: NMR buffer
From the text: Fragment screening has been performed using a library containing 461 fragments that has been designed using cheminformatics parameters such as Rule of Three and PAINS analysis. All fragments have been curated by ^1H and ^19F NMR for structure verification, purity, solubility in phosphate buffer and lack of apparent aggregation under these conditions. Fragments were pooled according to chemical compatibility resulting in 31 different pools to increase screening throughput. The library was provided by NMX Research in Solutions Inc.
Because of its power to probe the intrinsically weak interactions (Kd) between targets and low-molecular weight fragments, NMR fragment-based lead discovery (FBLD) is a very useful biophysical method in early stage drug discovery, especially for challenging target proteins; including those with shallow binding pockets. Since FBLD screens are performed using low-molecular weight compounds (fragments) with lower structural complexity, the same chemical space can be covered using a smaller number of drug-like fragments versus use of large libraries of higher-molecular weight lead-like compounds as in high throughput screening (HTS) campaigns. Therefore, FBLD has a much higher hit rate than HTS using only several hundred to several thousand compounds in comparison with approximately 1 million compounds for HTS. Also, the small size of the compounds screened in FBLD means a better chance to fully match the interactions with small or transient pockets within the target protein, where these less tractable pockets cannot be accessed with standard classical HTS methods. […] We expect this methodology to be more advantageous than classical HTS methods for expediting the time from hit to lead (H2L) and allows for rapid access to high quality leads with lower attrition rates in subsequent lead optimization (LO) campaigns toward pre-clinical candidate selection. FBLD screening by NMR involves a “consensus binding” approach where several distinct NMR experiments (DLB, STD, CPMG) are applied along with a free-state aggregation detection method (T2-CPMG) to rank the compounds for their affinity to the receptor (HRAS in this case) whilst simultaneously monitoring the solution behavior and critical quality attributes of each compound. The latter helps to eliminate artifact binders which are highly problematic. We performed a fluorine screen involving 461 compounds that were derived from a highly curated fragment library. Moreover, two-dimensional ^15N HSQC NMR was also used to validate ligand-binding sites on the target protein. In addition, we employed protein-detected biophysical measurements were employed to determine fragment binding affinities to the target protein (Kd) by HSQC NMR. From the results, we picked the most interesting hit were picked, FS-1255 that was identified based on consensus binding evidence from all NMR detection methods, and based the lack of free-state aggregation by T2-CPMG. We chose to prioritize on FS-1255 which was the most promising fragment hit.

HRas^G12V [3] = target: T1, HRas^G12V; assay: 19F DLB (ligand-observed 19F NMR) score; type: binding; set-up: scale not given here
How it was run: (§1)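 In the T2-CPMG experiment, echo spacing was 1 ms and total delays ranged over eight values from 1 to 800 ms. Both scores come from 600 MHz NMR of 50 μM HRas G12V mixed with fragment pools at 240 μM each, in phosphate buffer pH 7.4 with NaCl, MgCl2 and TCEP-d16. Ligand-observed 19F spectra were recorded with 1H decoupling, 64 scans and a 5 s relaxation delay.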

HRas^G12V [4] = target: T1, HRas^G12V; assay: 19F T2-CPMG NMR score; type: binding
How it was run: as §1

HRas^G12V [5] = target: T1, HRas^G12V; assay: Dissociation constant by NMR (1H/15N Fast-HSQC, 1H 1D protein-observed); type: binding; details: HRas^G12V; read-out: NMR Kd
Protocol: All NMR experiments were collected using 3 mm NMR tubes on a 600 MHz Bruker Avance III spectrometer equipped with a QCI helium cryoprobe and a SampleJet sample changer. The buffer used for NMR experiments was 25 mM sodium phosphate pH 7.4, 150 mM NaCl, 5 mM MgCl2, 1 mM TCEP-d16, 10% D2O. Data were processed using Bruker TopSpin.
(§2) ^1H/^15N Fast-HSQC experiments (Mori et al., Journal of Magnetic Resonance, Series B, Volume 108, Issue 1, July 1995, Pages 94-98) were recorded at a protein concentration of 50-100 μM.
(§3) Dissociation constants were obtained by monitoring changes in chemical shifts as a function of ligand concentration. The changes in chemical shifts (d) were calculated according to the following equation (Williamson, Progress in Nuclear Magnetic Resonance Spectroscopy, Volume 73, August 2013, Pages 1-16): d=√(1/2[δ_H^2+[…]]), Where δ are the changes in chemical shift in ppm for ^1H and ^15N and the correction factor (α) was set at 0.15.
(§4) ^1H 1D protein-observed experiments were recorded with 15-50 μM protein. The standard Bruker 1D ^1H sequence with excitation sculpting (zgesgp) was employed. A relaxation delay of 1 s was employed in order to use 256 scans while still keeping experimental time fairly short. Changes in protein chemical shift or peak intensity in the methyl region were monitored against compound concentration.

wild type HRAS [6] = target: T2, wild type HRAS (Homo sapiens (Human), UniProt P01112); assay: NMR Kd, wild type HRAS; type: binding
Protocol: as §2, §3, §4
(§5) The activity of compounds of the invention regarding wild type HRAS was measured in the same as in Example 80. The results obtained with the compounds in the various assays described above are depicted in Table 2.

KRAS^G12D-GDP [7] = target: T3, KRAS^G12D-GDP (Homo sapiens (Human), UniProt P01116, G12D); assay: 19F DLB score, KRAS^G12D-GDP; type: binding; set-up: scale not given here
Protocol: (§6) Since the fragment library was curated using phosphate buffer, 25 mM sodium phosphate pH 7.4, 150 mM NaCl, 5 mM MgCl2, 1 mM TCEP-d16, 10% D2O Fresh TCEP was used for experiments. Screening was performed using ^1H-decoupled 1D ^19F experiment Bruker experiment (zgfhigqn.2) with 64 scans and a relaxation delay of 5 seconds. 50 μM HRas^G12V and 240 μM of each fragment in pools (mixtures) were used.
(§7) Hit confirmation was performed using the same ^19F experiment as the screen. Ligand-observed 1D ^1H, protein-observed 1D ^1H, ^1H T2-CPMG as well as Saturation Transfer Difference (STD) experiments were also run on the same samples. Ligand-observed 1D ^1H was run using the standard Bruker sequence with excitation sculpting (zgesgp) with a relaxation delay of 10 seconds and 16 scans per spectrum. Protein-observed 1D ^1H was performed using the same sequence with a relaxation delay of 1 second and 256 scans in order to increase the signal-to-noise of the protein resonances, while keeping the experimental time relatively short. The ^1H T2-CPMG experiment employed a modified version of the Bruker 1D ^1H zgesgp experiment with the addition of a CPMG pulse train after the first 90° excitation pulse. Total duration for each spin echo was fixed at 1 ms (τ=500 μs), while the number of echoes in the pulse train was varied according to the total time (T). The number of scans for each spectrum was 4 and eight delay times were run on each sample, ranging from 1 ms to 800 ms.
(§8) The activity of compounds of the invention regarding KRAS^G12D-GDP was measured in the same as in Example 80. The results obtained with the compounds in the various assays described above are depicted in Table 23.

KRAS^G12D-GDP [8] = target: T3, KRAS^G12D-GDP; assay: 19F T2-CPMG score, KRAS^G12D-GDP; type: binding
Protocol: as §6, §7, §8

wild type HRAS [9] = target: T2, wild type HRAS; assay: 19F DLB score, wild type HRAS; type: binding
Protocol: as §6, §7, §5

wild type HRAS [10] = target: T2, wild type HRAS; assay: 19F T2-CPMG score, wild type HRAS; type: binding
Protocol: as §6, §7, §5

KRAS^G12D-GDP [11] = target: T3, KRAS^G12D-GDP; assay: Overall activity in the various assays, KRAS^G12D-GDP; type: binding
Protocol: as §8

KRAS^G12D-GDP [12] = target: T3, KRAS^G12D-GDP; assay: NMR Kd, KRAS^G12D-GDP; type: binding; details: 1H 1D protein-observed NMR, read-out: 1H 1D PO NMR Kd
Protocol: as §2, §3, §4, §8

SMILES | Binding to HRas^G12V (in words) (HRas^G12V [1]) | Solution behaviour in the NMR screen [2] | 19F DLB Score (HRas^G12V [3]) | 19F T2-CPMG Score (HRas^G12V [4]) | also measured
Cc1ccc(Cl)cc1NC(=O)Cc1c[nH]c2cc(F)ccc12 [Compound 10061] | low or no binding | Not soluble |  |  | 
CN(C)Cc1c[nH]c2cc(F)ccc12 [FS-1255, reference compound] | weak binding affinity |  | 1.77 and 1.7 and 1.65 | 5.22 | Kd (HRas^G12V [5]): 9.83 to 12 mM; Kd (wild type HRAS [6]): 6.07 mM; 19F DLB Score (KRAS^G12D-GDP [7]): 1.51; 19F T2-CPMG Score (KRAS^G12D-GDP [8]): 3.62
COc1ccc(NC(=O)Cc2c[nH]c3cc(F)ccc23)cc1Cl [Compound 10055] | low or no binding | Not soluble |  |  | 
CN(C)CC(=O)Nc1cccc(NC(=O)C(C#N)c2c[nH]c3cc(F)ccc23)c1 (stereo not shown) [Compound 11032] |  |  | 4.73 | <LLOQ | Activity ranking on HRas^G12V (in words) (HRas^G12V [1]): More active; also recorded: Most active; 19F DLB Score (wild type HRAS [9]): 5.76; 19F T2-CPMG Score (wild type HRAS [10]): <LLOQ
COc1cc(Cl)ccc1NC(=O)Cc1c[nH]c2cc(F)ccc12 [Compound 10051] | low or no binding | Not soluble |  |  | 
COc1ccc(NC(=O)Cc2c[nH]c3cc(F)ccc23)cc1C [Compound 10057] | low or no binding | Not soluble |  |  | 
COc1ccc(NC(=O)Cc2c[nH]c3cc(F)ccc23)cc1F [Compound 10056] | low or no binding | Not soluble |  |  | 
N#Cc1ccc(NC(=O)Cc2c[nH]c3cc(F)ccc23)cc1 [Compound 10054] | low or no binding | Not soluble |  |  | 
O=C(Cc1c[nH]c2cc(F)ccc12)Nc1cccc(F)c1 [Compound 10072] | low or no binding | Aggregated |  |  | 
CN(C)Cc1[nH]c2cc(F)ccc2c1C(CC(=O)O)c1ccccc1F (stereo not shown) [Compound 11066] |  |  | 0.91 | −0.25 | Activity ranking on HRas^G12V (in words) (HRas^G12V [1]): More active; Activity ranking on KRAS^G12D-GDP (in words) (KRAS^G12D-GDP [11]): most active
COC(=O)c1cc(NC(=O)Cc2c[nH]c3cc(F)ccc23)cc(OC)c1 [Compound 10060] | low or no binding | Not soluble |  |  | 
CC(=O)N1CCN(C(=O)Cc2c[nH]c3cc(F)ccc23)CC1 [Compound 10040] |  |  | 1.64 | 12.69 | Kd (HRas^G12V [5]): 4.03 to 9.5 mM; Activity ranking on HRas^G12V (in words) (HRas^G12V [1]): More active; 19F DLB Score (KRAS^G12D-GDP [7]): 1.63; 19F T2-CPMG Score (KRAS^G12D-GDP [8]): 7.49; Kd (KRAS^G12D-GDP [12]): 5.2 mM; Activity ranking on KRAS^G12D-GDP (in words) (KRAS^G12D-GDP [11]): most active
